The subject of this assay is A549 cells. Put plainly: CellEvent Caspase 3/7 green detection assay of apoptosis, brightfield and fluorescent imaging. The class given is cell-based, human. The note with it: for concentration at which exponentially more cells undergo apoptosis than at lower concentrations: at 48 hours (AITC, combinations) or earlier than at lower concentrations; for induction of cell death (apoptosis): daily treatment, imaged at 24 to 96 hours (combinations up to 72 hours). The procedure: A549 cells were plated into 48 well culture plates at a density of 3.0×10^4 cells/cm^2. Cells were dissociated with 0.05% trypsin EDTA following a 5-minute incubation at 37° C., neutralized in a 1:1 ratio of standard medium and counted using a hemocytometer prior to plating. All wells were settled overnight prior to addition of one of the following treatment compounds: AITC, PEITC, Thymoquinone, or Resveratrol. All treatments were performed within 24 hours following initial plating.
Treatment of the A549 cells occurred at the following time points and concentrations: AITC—25 μM, 50 μM and 100 μM for 24, 48 and 96 hours. PEITC—25 μM, 50 μM, 100 μM and 200 μM for 24, 48 and 96 hours. TQ—25 μM, 50 μM, 10 0 μM and 200 μM for 24, 48 and 96 hours. Resveratrol—25 μM, 50 μM and 100 μM for 48 and 96 hours. DMSO was used to dissolve each compound, and cells treated with DMSO without any of tested compounds served as a control. Treated cells received daily treatments using the same concentrations until the last time point of the experiment.
Apoptosis was detected using the CellEvent Caspase 3/7 green detection kit/assay from Thermofisher Scientific. Cells were incubated with diluted assay reagent for 30 minutes at 37° C. prior to analysis, and imaged by a brightfield and a fluorescent microscopes.
CellEvent Caspase-3/7 Green Detection Reagent is intrinsically non-fluorescent, as the four amino acid peptide (DEVD peptide) inhibits the ability of the dye to bind to DNA. However, following activation of caspase-3/7 in apoptotic cells, the DEVD peptide is cleaved, enabling the dye to bind to DNA and produce a bright, fluorogenic response. The fluorescent emission of the dye ˜530 can be observed under a fluorescent microscope.

Consider `CC1=CC(=O)C(C(C)C)=CC1=O` [Thymoquinone], for which the “concentration at which exponentially more cells undergo apoptosis than at lower concentrations” value (“concentration … at lower concentrations” for short) is no less than 100 µM and the “induction of cell death (apoptosis)” value is “induces cell death”.
With `Oc1ccc(C=Cc2cc(O)cc(O)c2)cc1` [Resveratrol], the “concentration … at lower concentrations” value is no less than 50 µM and the “induction of cell death (apoptosis)” value is given as “induces cell death”. Besides, the “apoptotic effect at 25 μM relative to higher concentrations” value (25 μM) is given as “reduced”. Further, where the note is “effects only observed at 48 and 96 hours”, the “onset of apoptotic effects” value is on record as “delayed relative to other compounds”.
Regarding `C=CCN=C=S` [AITC, Allyl Isothiocyanate], the “concentration … at lower concentrations” value was no less than 50 µM and the “induction of cell death (apoptosis)” value was “induces cancer cell death”.
